# ChEMBL document CHEMBL4619823, “Allosteric Modulation of Protein Arginine Methyltransferase 5 (PRMT5)” (ACS Med Chem Lett, 2020)
# Molecular target: PRMT5/MEP50 complex (Homo sapiens) (UniProt O14744+Q9BQA1)
# Assay: Binding affinity to human biotinylated PRMT5/MEP50 assessed as association rate constant by SPR analysis
# Format: protein-complex assay
row,Structure (SMILES),Ka [M⁻¹ s⁻¹]
1,COc1ccc([C@@]2(C34CC5CC(CC(C5)C3)C4)N=C(N)N(C)C2=O)cc1,1000

# Molecular target: PRMT5/MEP50 complex (Homo sapiens, UniProt O14744)
# Sequence (O14744 whole entry): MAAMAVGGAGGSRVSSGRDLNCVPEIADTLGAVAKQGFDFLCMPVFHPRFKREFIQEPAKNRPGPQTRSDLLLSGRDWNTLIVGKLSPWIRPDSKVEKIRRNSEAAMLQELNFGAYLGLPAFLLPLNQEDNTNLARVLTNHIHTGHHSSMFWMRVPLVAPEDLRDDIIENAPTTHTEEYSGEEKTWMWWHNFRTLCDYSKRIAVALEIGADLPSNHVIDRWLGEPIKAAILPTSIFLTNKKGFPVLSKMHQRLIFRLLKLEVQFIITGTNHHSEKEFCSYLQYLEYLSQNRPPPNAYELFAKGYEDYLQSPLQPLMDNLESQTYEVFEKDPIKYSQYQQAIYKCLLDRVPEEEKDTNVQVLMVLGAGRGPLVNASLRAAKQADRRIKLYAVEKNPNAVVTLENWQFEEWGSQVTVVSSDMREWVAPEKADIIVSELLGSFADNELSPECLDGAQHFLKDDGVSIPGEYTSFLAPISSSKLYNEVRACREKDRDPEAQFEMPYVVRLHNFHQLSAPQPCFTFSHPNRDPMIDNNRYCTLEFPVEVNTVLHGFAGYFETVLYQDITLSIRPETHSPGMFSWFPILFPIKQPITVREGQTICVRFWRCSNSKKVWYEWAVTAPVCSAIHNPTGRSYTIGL
# Sequence (Q9BQA1 whole entry, further chain): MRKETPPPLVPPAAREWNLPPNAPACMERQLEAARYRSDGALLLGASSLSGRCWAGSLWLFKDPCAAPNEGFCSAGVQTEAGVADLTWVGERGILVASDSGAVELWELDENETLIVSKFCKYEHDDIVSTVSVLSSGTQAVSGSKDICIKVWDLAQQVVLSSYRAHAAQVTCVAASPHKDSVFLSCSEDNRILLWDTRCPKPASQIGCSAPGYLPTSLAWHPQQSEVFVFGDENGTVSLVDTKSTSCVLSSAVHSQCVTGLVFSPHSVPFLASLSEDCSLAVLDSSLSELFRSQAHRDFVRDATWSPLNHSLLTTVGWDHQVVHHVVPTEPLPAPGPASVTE
# Assay: Inhibition of recombinant Avi-tagged PRMT5 (2 to 637)/ His-tagged MEP50 (2 to 342) (unknown origin) expressed in baculovirus infected Sf21 cells using biotinylated H4R3 (Me1) peptide as substrate in presence of SAM preincubated for 60 mins followed by substrate addition after 150 mins by biochemical methylation assay
row,Structure (SMILES),EC50 [nM]
1,CN1C(=O)[C@](c2ccccc2)(C23CC4CC(CC(C4)C2)C3)N=C1N,12
2,COc1ccc([C@@]2(C34CC5CC(CC(C5)C3)C4)N=C(N)N(C)C2=O)cc1,16
3,CN1C(=O)[C@@](CCC2CCCCC2)(c2ccccc2)N=C1N,50
4,CN1C(=O)[C@](c2ccc3ccccc3c2)(C23CC4CC(CC(C4)C2)C3)N=C1N,90
5,COc1cccc([C@@]2(C34CC5CC(CC(C5)C3)C4)N=C(N)N(C)C2=O)c1,56
6,CC1CCN2C(=O)[C@](c3ccccc3)(C34CC5CC(CC(C5)C3)C4)N=C2N1 (stereo partly drawn),66
7,CCC1CCN2C(=O)[C@](c3ccccc3)(C34CC5CC(CC(C5)C3)C4)N=C2N1 (stereo partly drawn),68
8,COc1ccc(C2(C34CC5CC(O)(CC(F)(C5)C3)C4)N=C(N)N(C)C2=O)cc1 (stereo not drawn),620
9,COc1ccc([C@@]2(C34CC5CC(CC(O)(C5)C3)C4)N=C(N)N(C)C2=O)cc1,220
10,COc1ccc([C@]2(C34CC5CC(CC(C5)C3)C4)N=C(N)N(C)C2=O)cc1,3100
11,COc1ccc([C@@]2(C34CCC(CC3)CC4)N=C(N)N(C)C2=O)cc1,240

# Molecular target: Protein arginine N-methyltransferase 5 (Homo sapiens, UniProt O14744)
# Sequence (O14744 whole entry): as the sequence (O14744 whole entry) above
# Assay: Inhibition of PRMT5 in human MCF7 cells assessed as reduction in symmetrically dimethylated nuclear protein level incubated for 3 days by Alexafluor-488 conjugate anti-rabbit antibody/DAPI staining based IN cell analyzer method
row,Structure (SMILES),EC50 [nM]
1,COc1ccc([C@@]2(C34CC5CC(CC(C5)C3)C4)N=C(N)N(C)C2=O)cc1,4600
